Reference: patent EP3906926A1, “PROLINE HYDROXYLASE INHIBITORS FOR USE IN THE SKELETAL MUSCLE REGENERATION” (Policlinico San Donato S.p.A.- Istituto di Ricovero e Cura …, priority 2020, dated 2021)
pIC50: −log10 of the molar value.

Tests used:
C2C12 murine myoblasts [1] = assay: RealTime-Glo MT Cell Viability Assay; settings: at IC50 concentrations (50 µM IOX2, 40 µM FG-4592), 24 hours, vs untreated controls
Description: RealTime-Glo™ kits MT Cell Viability Assay (Promega) was used to investigate the effects of IOX2 and FG-4592 treatment on cell viability. Briefly, 5 x 10^3 C2C12 murine myoblasts were seeded in a 96 well plate and incubated for 24 hours (T0) with MT Cell Viability Substrate (1:1000 dilution) and NanoLuc® Enzyme (1:1000 dilution). Then, 50 µM IOX2 or 40 µM FG-4592 were added to the cell cultures and incubated for other 24 hours before luminescence analysis.
RealTime-Glo™ kits MT Cell Viability Assay (Promega) was used to investigate the effects of PLG treatment on cell viability. Briefly, 5 x 10^3 C2C12 murine myoblasts were seeded in a 96 well plate and incubated for 24 hours (T0) with MT Cell Viability Substrate (1:1000 dilution) and NanoLuc® Enzyme (1:1000 dilution). Then, each PLG inhibitor was added at its EC50 to the cell cultures and incubated for other 24 hours before luminescence analysis.

C2C12 murine myoblasts [2] = assay: CellTox Cytotoxicity Assay; settings: at IC50 concentrations (50 µM IOX2, 40 µM FG-4592), 24 hours, vs untreated controls
Description: To assess PHDs inhibitors cytotoxicity, 5 x 10^3 C2C12 murine myoblasts were seeded in a 96-well plate.

MyoD = assay: Western blot of MyoD nuclear localization in WNT7a-KO versus wild type myoblasts; assay type: cell-based, murine; settings: WNT7a-KO vs wild type cells, after 24 h inhibitor pre-treatment
Description: For nuclei separation, 5 x 10^6 cells were collected after enzymatic digestion with trypsin (Merck), centrifuged at the maximum speed, resuspended in 400 µl of Buffer A (10 mM KCl, 0.1 mM EDTA, 1 mM DTT, 10 mM Hepes, pH 7.9), containing protease and phosphatase inhibitors cocktail (Merck), and incubated on ice for 20 minutes. Then, 10% NP40 was added to the cell suspension, mixed for 40 seconds, and centrifuged 40 seconds at the maximum speed. After centrifugation, the pellet was resuspended in 80 µl of Buffer C (0.4M NaCl, 1 mM EDTA, 1 mM DTT, 20 mM Hepes, pH 7.9), containing a protease and phosphatase inhibitors cocktail, and then mixed for 30 minutes at 4°C at the maximum speed. Finally, the nuclear suspension was centrifuged for 5 minutes at 4°C at the maximum speed, collected and transferred in a new tube. The total protein content was determined with the BCA Protein Assay Kit (Pierce), according to the manufacturer's instructions.
Proteins were denaturated by boiling for 10 minutes in sample buffer (0.6 g/100 mL Tris, 2 g/100 mL SDS, 10% glycerol, 1% 2-mercaptoethanol, pH 6.8) and loaded into 10% SDS-PAGE gel, then transferred onto a nitrocellulose membrane (Trans-blot, Bio-Rad Laboratories) by electroblotting. […]
(§1) Therefore, WNT7a silencing was conducted by Crispr/Cas9 genome editing in C2C12 murine myoblasts and the effects on myogenesis were evaluated.

[3] = test system: WNT7a silenced murine myoblasts (WNT7a-KO); assay: Differentiation of WNT7a-KO versus wild type myoblasts after chemical hypoxia (fusion and differentiation indexes); assay type: cell-based; settings: WNT7a-KO vs wild type cells, 24 hours inhibitor pre-treatment then 7 days differentiation
Description: After differentiation for 7 days in DM, cells were washed with phosphate saline buffer (PBS) and fixed for 15 minutes in 4% (w/v) paraformaldehyde at room temperature. For permeabilization and blocking, cells were incubated for 1 hour in the presence of PBS 0.1% (v/v) Triton X-100 (TX-100, Merck) and 5% (w/v) FBS (Merck) at room temperature. […] After incubation, cells were washed three times in PBS and incubated for 1 hour at room temperature with an anti-mouse FITC-conjugated secondary antibody (Jackson ImmunoResearch), diluted 1:200. […] Myogenesis was assessed by measuring the myotube area and the number of myonuclei per myotube using a fluorescent microscope (Olympus TH4-200) equipped with an acquisition camera. To quantify both differentiation and fusion indexes, ten fields were chosen randomly and, for each field, a minimum of one hundred myosin-positive myotubes with more than two myonuclei were measured using the ImageJ v1.49o software. The area and the number of nuclei per myotube was the mean of ten measurements averaged from three different experiments.
as §1
The knockout of WNT7a gene was obtained performing CRISPR/Cas9 genome editing. In particular, crRNAs and tracrRNA were obtained from TrueGuide™ Synthetic gRNA kit (ThermoFisher Scientific) and they were reconstituted and annealed following the manufacturer's instructions. […] Briefly, they were re-suspended using 1X Tris-EDTA buffer pH 8.0 to prepare a 100 µM stock solution. Then, gRNAs were generated preparing a mix composed of 10 µL crRNA, 10 µL tracrRNA, 10 µL annealing buffer, and 20 µL nuclease-free water. The mixture was incubated at 95 °C for 5 minutes followed by 10 mins on 78 °C, and then 25 °C for 5 minutes.
The transfection was performed seeding 5 x 10^5 murine myoblasts C2C12 in a 24-well plate.
The diluted Lipofectamine ™ CRISPRMAX ™ reagent in Opti-MEM I Medium was incubated 1 minute at room temperature and, then, it was added to gRNA/Opti-MEM I solution for 15 minutes. Then, the mixture was added to murine myoblasts and it was incubated at 37°C for 2 days. After the incubation, single-cell clones were isolated using a limiting dilution cloning in 96-well plates. The efficiency of WNT7a knockout (WNT7a-KO) was verified by sequencing.

Myogenin = assay: qPCR of Myogenin during differentiation; assay type: cell-based, murine; settings: day 3 of differentiation, IOX2 or FG-4592 pre-treated myoblasts
Description: (§2) Total RNA was isolated using ReliaPrep™ RNA Miniprep Systems (Promega), and reverse transcribed to cDNA using the iScript cDNA synthesis kit (BioRad), according to the Manufacturer's instructions. Real-Time Quantitative PCR was performed on 10 ng of cDNA template, 0.2 µM primers, and GoTaq® qPCR Master Mix (Promega) in 20 µl final volume using a StepOnePlus® Real-Time PCR System (Applied Biosystem). […] RPL13 was used as the housekeeping gene. The amplification program consisted in an initial denaturation at 95°C for 3 minutes, followed by 40 cycles of 5 seconds each at 95°C and 30 seconds at 57°C; WNT7a was amplified at 53°C. Relative quantification of target genes was performed in triplicate and calculated by the equation 2^-ΔΔCt.
as §2, with “ReliaPrepTM” for “ReliaPrep™”, “2-ΔΔCt.” for “2^-ΔΔCt.”

PHDs = assay: ODD-luciferase reporter assay (Dual-Glo) for PHDs inhibition; settings: C2C12 myoblasts transfected with ODD-luciferase-pcDNA3; 24 hours at 10, 25, 50, 100 µM, normoxic conditions; linear regression
Description: The IC50 was calculated using a Dual-Glo® Luciferase Assay System kit (Promega) that allows a high-throughput analysis of mammalian cells containing the Firefly (Luciferase-pcDNA3, ODD-Luciferase-pcDNA3) and Renilla (pRL-CMV) luciferase reporters. Briefly, 5 x 10^3 cells per well were seeded in a 96-well plate, and then transfected for 24 hours with a Luciferase-pcDNA3 or an ODD-Luciferase-pcDNA3 (80 ng), containing the firefly gene reporter. A co-transfection with pRL-CMV (8 ng), containing the renilla gene reporter, was performed as an internal control, according to the ViaFect Transfection Reagent® protocol (Promega). After transfection, cells were treated with 10, 25, 50, and 100 µM IOX2 or FG-4592 (R oxadustat) for 24 hours, and then an equal volume of Dual-Glo® Luciferase Reagent was added to each well, incubated at room temperature for 30 minutes, and then analyzed with a Varioskan™ LUX Multimode Microplate Reader (ThermoFisher Scientific). Then, an equal volume of Dual-Glo® Stop & Glo® Reagent was added to each well in order to quench the luminescence from the firefly reaction and to provide the substrate for the renilla luciferase. The mixture was incubated for 30 minutes before analysis. The IC50 values were calculated by linear regression.
To this purpose, the IC50 of both compounds was determined by transiently co-transfecting C2C12 myoblasts with the ODD-luciferase-pcDNA3 plasmid, containing the Oxygen Dependent Domain (ODD) of HIF-1α, and with the pRL-CMV plasmid, as the internal control (Figure 4, panel A). Then, transfected cells were treated for 24 hours with IOX2 or FG-4592 at different concentrations (10, 25, 50, and 100 µM) under normoxic conditions, and the emitted luminescence was collated to untreated controls.
The EC50 was calculated using a Dual-Glo® Luciferase Assay System kit (Promega) that allows a high-throughput analysis of mammalian cells containing the Firefly (Luciferase-pcDNA3, ODD-Luciferase-pcDNA3) and Renilla (pRL-CMV) luciferase reporters. Briefly, 5 x 10^3 cells per well were seeded in a 96-well plate, and then transfected for 24 hours with a Luciferase-pcDNA3 or an ODD-Luciferase-pcDNA3 (80 ng), containing the firefly gene reporter. A co-transfection with pRL-CMV (8 ng), containing the renilla gene reporter, was performed as an internal control, according to the ViaFect Transfection Reagent® protocol (Promega). […] Then, an equal volume of Dual-Glo® Stop & Glo® Reagent was added to each well in order to quench the luminescence from the firefly reaction and to provide the substrate for the renilla luciferase. The mixture was incubated for 30 minutes before analysis. The EC50 values were calculated by linear regression.
The EC50 of each compound was determined by transiently co-transfecting C2C12 myoblasts with the ODD-luciferase-pcDNA3 plasmid, containing the Oxygen Dependent Domain (ODD) of HIF-1α, and with the pRL-CMV plasmid, as the internal control (Figure 12, panel A).

MHC = assay: qPCR of MHC during differentiation; assay type: cell-based, murine; settings: day 7 of differentiation, IOX2 or FG-4592 pre-treated myoblasts
Description: as §2
as §2, with “ReliaPrepTM” for “ReliaPrep™”, “2-ΔΔCt.” for “2^-ΔΔCt.”

Row | SMILES | Cell viability (C2C12 murine myoblasts [1]) | Cell toxicity (C2C12 murine myoblasts [2]) | decrease of MyoD nuclear localization (MyoD) | decrease in fusion index [3] [%] | reduction in differentiation index [3] | increase of Myogenin (Myogenin) [fold] | pIC50 (PHDs) | enhancement of MHC (MHC) [fold]
1 | Cc1nc(C(=O)NCC(=O)O)c(O)c2ccc(Oc3ccccc3)cc12 [FG-4592, Roxadustat] | no significant changes | no significant changes | 42% | 63 | 15% | 1.4 | 4.40 | 2.3
2 | O=C(O)CNC(=O)c1c(O)c2ccccc2n(Cc2ccccc2)c1=O [IOX2] | no significant changes | no significant changes | no significant changes | 67 | no significant changes | 2.0 | 4.30 | 2.2
